In US7109222B2, “Compounds that modulate PPAR activity and methods of preparation” (Warner-Lambert Company, LLC, priority 2002, dated 2006):
Blank lines part the entries; values can stand above or below the molecule they belong to.

What was measured:
hPPARα = target: T1, hPPARα (Homo sapiens, UniProt Q07869); assay: Test A: transient transfection assay in HepG2 cells, Gal4-PPAR chimeric receptor, luciferase reporter (hPPARα); format: cell-based; conditions: HepG2 cells transfected with hPPARα chimeric receptor; 24 hours incubation; compound 50 μM to 50 pM; read-out: Hep G2-hα EC50
T1 sequence (Q07869 200-468 limits assumed): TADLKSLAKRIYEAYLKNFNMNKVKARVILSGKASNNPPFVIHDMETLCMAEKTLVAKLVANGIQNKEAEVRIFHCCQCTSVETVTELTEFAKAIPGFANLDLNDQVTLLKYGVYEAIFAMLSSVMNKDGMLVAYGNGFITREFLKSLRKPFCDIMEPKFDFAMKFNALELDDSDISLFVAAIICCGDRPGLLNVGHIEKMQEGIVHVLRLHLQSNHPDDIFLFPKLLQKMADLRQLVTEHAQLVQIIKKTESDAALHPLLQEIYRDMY
Protocol: (§1) 1. Test A. Transient Transfections Assay Using the HepG2 Hepatoma Cell Line.
HepG2 cells were transiently transfected with an expression plasmids encoding hPPARα, hPPARβ or mPPARγ chimeric receptors and a reporter containing the yeast upstream activating sequence (UAS) upstream of the viral E1B promoter controlling a luciferase reporter gene. In addition, the plasmid pRSVβ-gal was used to control for transfection efficiency. HepG2 cells were grown in DMEM supplemented with 10% FBS and 1 μM non-essential amino acid. On the first day, cells were split into 100 mm dishes at 2.5×10^6/dish and incubated overnight at 37C.°/5% CO2. On the second day the cells were transiently transfected with plasmid DNA encoding a chimeric receptor, the luciferase reporter gene; and β-gal. For each 100 mm dish, 15 μg of lucifease reporter (PG5E1b) DNA, 15 μg of Gal4-pPAR chimeric receptor DNA, and 1.5 μg of μ-gal plasmid DNA were mixed with 1.4 ml of opti-MEM in the tube. 28 μl of LipoFectamine-2000 reagent was added to 1.4 ml of opti-MEM in the tube, and incubate for 5 min at RT. The diluted Lipofectamine-2000 reagent was combined with the DNA mixture, and incubate for 20 min at RT. After fresh medium was added to each 100 mm dish of cells, 2.8 ml of Lipofectamine2000-DNA mixture was added dropwise to the 100 mm dish containing 14 ml of medium, and incubate 37° C. overnight. On day three cells were trypsinized off the 100 mm dishes and re-plated on 96 well plates. Cells were plated at 2.5×10^4 cells per well in 150 μl of media and 50 μl of compound diluted by media was added. The concentrations of reference agents and test compound added were in the range from 50 μM to 50 pM. After addition of compounds, the plates were incubated at 37° C. for 24 hours. Subsequently cells were washed once with 100 μl of PBS, lysed, and processed for measuring luciferase and μ-gal activity using Dual-Light luciferase kit from Tropix®, according to the manufacturer's recommendations, on an EG&G Bethold MicroLumat LB96P luminometer. EC50 values were obtained using the GraphPad Prism™ program. […] Accordingly, the compounds of the present invention should find considerable therapeutic applications for hypercholesterolemia and hyperlipidemia.

hPPARβ = target: T2, hPPARβ (Homo sapiens, UniProt Q03181); assay: Test A: transient transfection assay in HepG2 cells, Gal4-PPAR chimeric receptor, luciferase reporter (hPPARβ); format: cell-based; conditions: HepG2 cells transfected with hPPARβ chimeric receptor; 24 hours incubation; compound 50 μM to 50 pM; read-out: Hep G2-hβ EC50
T2 sequence (Q03181 211-441 limits assumed): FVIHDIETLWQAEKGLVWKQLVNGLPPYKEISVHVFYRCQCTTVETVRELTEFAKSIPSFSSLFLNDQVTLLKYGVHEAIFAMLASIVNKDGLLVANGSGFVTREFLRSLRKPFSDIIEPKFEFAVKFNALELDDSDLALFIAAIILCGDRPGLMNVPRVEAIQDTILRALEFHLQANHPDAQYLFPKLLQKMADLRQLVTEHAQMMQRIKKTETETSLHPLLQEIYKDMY
Protocol: as §1
HepG2 cells were transiently transfected with an expression plasmids encoding hPPARα, hPPARβ or mPPARγ chimeric receptors and a reporter containing the yeast upstream activating sequence (UAS) upstream of the viral E1B promoter controlling a luciferase reporter gene. In addition, the plasmid pRSVβ-gal was used to control for transfection efficiency. HepG2 cells were grown in DMEM supplemented with 10% FBS and 1 μM non-essential amino acid. On the first day, cells were split into 100 mm dishes at 2.5×10^6/dish and incubated overnight at 37C.°/5% CO2. On the second day the cells were transiently transfected with plasmid DNA encoding a chimeric receptor, the luciferase reporter gene; and β-gal. For each 100 mm dish, 15 μg of lucifease reporter (PG5E1b) DNA, 15 μg of Gal4-pPAR chimeric receptor DNA, and 1.5 μg of μ-gal plasmid DNA were mixed with 1.4 ml of opti-MEM in the tube. 28 μl of LipoFectamine-2000 reagent was added to 1.4 ml of opti-MEM in the tube, and incubate for 5 min at RT. The diluted Lipofectamine-2000 reagent was combined with the DNA mixture, and incubate for 20 min at RT. After fresh medium was added to each 100 mm dish of cells, 2.8 ml of Lipofectamine2000-DNA mixture was added dropwise to the 100 mm dish containing 14 ml of medium, and incubate 37° C. overnight. On day three cells were trypsinized off the 100 mm dishes and re-plated on 96 well plates. Cells were plated at 2.5×10^4 cells per well in 150 μl of media and 50 μl of compound diluted by media was added. The concentrations of reference agents and test compound added were in the range from 50 μM to 50 pM. After addition of compounds, the plates were incubated at 37° C. for 24 hours. Subsequently cells were washed once with 100 μl of PBS, lysed, and processed for measuring luciferase and μ-gal activity using Dual-Light luciferase kit from Tropix®, according to the manufacturer's recommendations, on an EG&G Bethold MicroLumat LB96P luminometer. EC50 values were obtained using the GraphPad Prism™ program.

Compound: Cc1nc(-c2ccc(C(F)(F)F)cc2)sc1CSc1ccc2oc(C(=O)O)cc2c1 [Example 6, 5-[4-methyl-2-(4-trifluoromethyl-phenyl)-thiazol-5-ylmethylsulfanyl]-benzofuran-2-carboxylic acid]
EC50 (hPPARα): 2.04 µM
melting point: 207 to 209 °C

Compound: Cc1nc(-c2ccc(C(F)(F)F)cc2)sc1CSc1ccc2c(c1)CCN(CC(=O)O)C2 [Example 10, {6-[4-Methyl-2-(4-trifluoromethyl-phenyl)-thiazol-5-ylmethylsulfanyl]-3,4-dihydro-1H-isoquinolin-2-yl}-acetic acid]
EC50 (hPPARβ): 0.111 µM

Compound: Cc1nc(-c2ccc(C(F)(F)F)cc2)sc1CSc1ccc2c(c1)C=C(C(=O)O)CO2 [Example 16, 6-[4-methyl-2-(4-trifluoromethyl-pheny)-thiazol-5-ylmethylsulfanyl]-2H-chromene-3-carboxylic acid]
EC50 (hPPARβ): 2.21 µM

Compound: Cc1nc(-c2ccc(C(F)(F)F)cc2)sc1CSc1ccc2c(c1)CC(CC(=O)O)C2 (stereo not shown) [Example 2, {5-[4-methyl-2-(4-trifluoromethyl-phenyl)-thiazol-5-ylmethylsulfanyl]-indan-2-yl}-acetic acid]
EC50 (hPPARα): 1.96 µM
EC50 (hPPARβ): 0.267 µM

Compound: COc1cc2on(CC(=O)O)c(=O)c2cc1SCc1sc(-c2ccc(C(F)(F)F)cc2)nc1C [Example 22, 6-Methoxy-5-[4-Methyl-2-(4-trifluoromethyl-pheny)-thiazol-5-ylmethylsulfanyl]-3-oxo-3H-benzo[d]isoxazo-2-yl-acetic-acid]
melting point: 245 to 247 °C

Compound: COc1cc2c(cc1SCc1sc(-c3ccc(C(F)(F)F)cc3)nc1C)CCC(CC(=O)O)O2 (stereo not shown) [Example 14, 7-methoxy-6-[4-methyl-2-(4-trifluoromethyl-pheny)-thiazol-5-ylmethylsulfanyl]-chroman-2-yl-acetic acid]
EC50 (hPPARβ): 0.019 µM

Compound: Cc1nc(-c2ccc(C(F)(F)F)cc2)sc1CSc1ccc2c(c1)CCC(=O)N2CC(=O)O [Example 12]
EC50 (hPPARβ): 0.896 µM

Compound: Cc1nc(-c2ccc(C(F)(F)F)cc2)sc1CSc1ccc2c(c1)CCCN2CC(=O)O [Example 11, {6-[4-methyl-2-(4-trifluoromethyl-phenyl)-thiazol-5-ylmethylsulfanyl]-3,4-dihydro-2H-quinolin-1-yl}-acetic acid]
EC50 (hPPARα): 1.93 µM
EC50 (hPPARβ): 0.286 µM

Compound: Cc1nc(-c2ccc(C(F)(F)F)cc2)sc1CSc1ccc2c(c1)CCC(CC(=O)O)C2=O (stereo not shown) [Example 7, {6-[4-Methyl-2-(4-trifluoromethylphenyl)thiazol-5-ylmethylsulfanyl]-1-oxo-3,4-dihydro-1H-naphthalen-2-yl}-acetic acid]
EC50 (hPPARβ): 0.614 µM

Compound: Cc1nc(-c2ccc(C(F)(F)F)cc2)sc1CSc1ccc2c(c1)CCC(C)(CC(=O)O)O2 (stereo not shown) [Example 8, {2-methyl-6-[4-methyl-2-(4-trifluoromethyl-phenyl)-thiazol-5-ylmethylsulfanyl]-chroman-2-yl}-acetic acid]
EC50 (hPPARβ): 3.47 µM

Compound: Cc1nc(-c2ccc(C(F)(F)F)cc2)sc1CSc1ccc2c(c1)CC(C(=O)O)C2 (stereo not shown) [Example 1, 5-[4-methyl-2-(4-trifluoromethyl-phenyl)-thiazol-5-ylmethylsulfanyl]-indan-2-carboxylic acid]
EC50 (hPPARα): 0.384 µM
EC50 (hPPARβ): 0.178 µM

Compound: Cc1cc2c(cc1SCc1sc(-c3ccc(C(F)(F)F)cc3)nc1C)CCC(CC(=O)O)O2 (stereo not shown) [Example 15, 7-Methyl-6-[4-methyl-2-(4-trifluoromethyl-pheny)-thiazol-5-ylmethylsulfanyl]-chroman-2-yl-acetic acid]
EC50 (hPPARα): 1.3 µM
EC50 (hPPARβ): 0.252 µM

Further lines, results first:

EC50 (hPPARα): 0.917 µM
EC50 (hPPARβ): 0.762 µM
Compound: Cc1nc(-c2ccc(C(F)(F)F)cc2)sc1CSc1ccc2c(c1)CCC(C(=O)O)O2 (stereo not shown) [Example 3]

EC50 (hPPARα): 1.19 µM
EC50 (hPPARβ): 0.0241 µM
Compound: COc1cc2c(cc1SCc1sc(-c3ccc(C(F)(F)F)cc3)nc1C)CCC(CC(=O)O)C2 (stereo not shown) [Example 13, {7-Methoxy-6-[4-methyl-2-(4-trifluoromethyl-phenyl)-thiazol-5-ylmethylsulfanyl]-1,2,3,4-tetrahydro-naphthalen-2-yl}-acetic acid]

EC50 (hPPARα): 0.899 µM
EC50 (hPPARβ): 1.54 µM
Compound: Cc1nc(-c2ccc(C(F)(F)F)cc2)sc1CSc1ccc2c(c1)CC(CC(=O)O)O2 (stereo not shown) [Example 4, {5-[4-Methyl-2-(4-trifluoromethyl-phenyl)-thiazol-5-ylmethylsulfanyl]-2,3-dihydro-benzofuran-2-yl}-acetic acid]

EC50 (hPPARα): 0.042 µM
EC50 (hPPARβ): 0.113 µM
Compound: COc1cc2c(cc1SCc1sc(-c3ccc(C(F)(F)F)cc3)nc1C)CCC2CC(=O)O (stereo not shown) [Example 19, {6-Methoxy-5-[4-methyl-2-(4-trifluoromethyl-phenyl)-thiazol-5-ylmethylsulfanyl]-indan-1-yl}-acetic acid]

EC50 (hPPARα): 1000 µM
melting point: 149 to 149.5 °C
EC50 (hPPARβ): 0.394 µM
Compound: Cc1nc(-c2ccc(C(F)(F)F)cc2)sc1CSc1ccc2c(c1)CC(CC(=O)O)CO2 (stereo not shown) [Example 18, 6-[4-methyl-2-(4-trifluoromethyl-pheny)-thiazol-5-ylmethylsulfanyl]-chroman-3-yl-acetic acid]

EC50 (hPPARα): 0.572 µM
Compound: Cc1nc(-c2ccc(C(F)(F)F)cc2)sc1COc1ccc2c(CC(=O)O)csc2c1 [Example 23, {6-[4-Methyl-2-(4-trifluoromethyl-phenyl)-thiazol-5-ylmethoxy]-benzo[b]thiophen-3-yl}-acetic acid]

EC50 (hPPARα): 3.74 µM
EC50 (hPPARβ): 0.0083 µM
Compound: Cc1nc(-c2ccc(C(F)(F)F)cc2)sc1CSc1ccc2c(c1)CCC(CC(=O)O)O2 (stereo not shown) [Example 5]

EC50 (hPPARα): 2.19 µM
melting point: 139 to 140 °C
EC50 (hPPARβ): 2.13 µM
Compound: Cc1nc(-c2ccc(C(F)(F)F)cc2)sc1CSc1ccc2c(c1)CC(C(=O)O)CO2 (stereo not shown) [Example 17, 6-[4-methyl-2-(4-trifluoromethyl-pheny)-thiazol-5-ylmethylsulfanyl]-chroman-3-carboxylic acid]
